Measurements as given in PMC6862209, “Deep Eutectic Solvents as New Reaction Media to Produce Alkyl-Glycosides Using Alpha-Amylase from Thermotoga maritima” (International Journal of Molecular Sciences, 2019).

What was measured:
[1] = biological target: T1, Amy A (α-amylase from Thermotoga maritima) (Thermotoga maritima, UniProt Q9S5Y2); assay: HPLC of remaining maltotriose (partially purified enzyme); format: biochemical; details: 50 mM maltotriose, 75 °C, 4 h; water:DES cosolvent series, hydrolysis to maltose and glucose
T1 construct: gene TM_1840; heterologous expression in E. coli
T1 sequence (Q9S5Y2 27-556): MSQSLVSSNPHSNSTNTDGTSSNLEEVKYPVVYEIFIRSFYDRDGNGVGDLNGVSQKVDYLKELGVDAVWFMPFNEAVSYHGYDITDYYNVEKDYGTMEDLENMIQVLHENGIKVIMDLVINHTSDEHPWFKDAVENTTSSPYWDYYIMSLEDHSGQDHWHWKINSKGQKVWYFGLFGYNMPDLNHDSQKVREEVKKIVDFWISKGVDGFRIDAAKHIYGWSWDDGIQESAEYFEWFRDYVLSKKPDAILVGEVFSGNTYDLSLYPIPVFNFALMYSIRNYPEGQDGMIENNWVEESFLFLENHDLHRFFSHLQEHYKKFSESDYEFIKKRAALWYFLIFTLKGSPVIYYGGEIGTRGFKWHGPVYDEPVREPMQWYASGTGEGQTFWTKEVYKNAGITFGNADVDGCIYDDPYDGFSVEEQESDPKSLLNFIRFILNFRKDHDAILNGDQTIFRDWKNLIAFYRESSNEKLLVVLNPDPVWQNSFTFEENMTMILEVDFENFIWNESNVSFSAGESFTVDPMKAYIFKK

[2] = biological target: T1, Amy A (α-amylase from Thermotoga maritima); assay: HPLC of methyl glycosides after glucoamylase treatment; format: biochemical; details: acceptor in alcoholysis; donor maltotriose 50 mM, 75 °C, choline chloride:urea (1:2):water

## OC[C@H]1O[C@H](O[C@H]2[C@H](O)[C@@H](O)[C@@H](O[C@H]3[C@H](O)[C@@H](O)C(O)O[C@@H]3CO)O[C@@H]2CO)[C@H](O)[C@@H](O)[C@@H]1O (some centres unmarked) [maltotriose]
[1]
  HPLC of remaining maltotriose (partially purified enzyme): Substrate conversion was measured as the amount of maltotriose hydrolyzed to maltose and glucose.

## CO [methanol]
[2]
  HPLC of methyl glycosides after glucoamylase treatment: Methyl-glucoside, methyl-maltoside, and interestingly, also methyl-maltotrioside were detected.
